Read-outs that look alike come from different tables or passages of the source.
What was measured:
[1] = Stability of QC samples in plasma; design: species or system rat
Protocol: For the analytical validation of Jaspine B in plasma samples, the standard curve range was 25–5000 ng/mL and the concentrations of quality control (QC) samples were 75, 500, and 3000 ng/mL. The recovery of these spiked QC sample were in the range of 88.2–98.1%. Intra- and inter-day precision and accuracy had coefficients of variance of less than 10%. The stability of Jaspine B QC samples after 3 freeze thaw cycles were 83.9–94.4% and the short-term stability of these samples after standing for 6 h at room temperature was 94.3–100.1%.

MDA-MB-231 = test system: MDA-MB-231; design: method as in doi:10.5352/JLS.2016.26.12.1392; settings: MDA-MB-231 human breast adenocarcinoma; cited from earlier work
[2] = Tissue distribution after intravenous administration; assay type: in vivo; settings: rat
Protocol: Jaspine B was dissolved in a vehicle containing DMSO: PEG400: saline (2:4:4, v/v/v) and IV-injected via the femoral vein at a dose of 10 mg/kg (vehicle volume, 1 mL/kg). Blood samples were collected from the abdominal artery and animals were euthanized at 0.5 h and 12 h after IV dosing. The blood, brain, liver, kidney, heart, and spleen were immediately excised, gently washed with ice-cold saline, and weighed. The tissue samples were homogenized with 9 volumes of saline. Aliquots of 50 μL of tissue homogenates and plasma were stored at −80 °C until the analysis.
Aliquots (50 μL) of plasma and tissue homogenates were added to 250 μL of acetonitrile containing 0.5 ng/mL of berberine. After vortexing for 10 min and centrifugation at 13,200 rpm for 5 min, an aliquot (2 μL) of the supernatant was injected directly into the LC-MS/MS system. For the analysis of plasma and tissue concentration, the standard curves with a range of 5–1000 ng/mL in the blank plasma and 10% bank tissue homogenates from brain, liver, kidney, heart, and spleen were prepared, and the concentrations of quality control (QC) samples of respective plasma and tissue homogenates were 25 and 750 ng/mL. The recovery of these spiked QC samples were in the range of 73.6–112.2% in all tissue homogenates. Intra- and inter-day precision and accuracy had coefficients of variance of less than 15%.

SK-OV3 = test system: SK-OV3; design: method as in doi:10.5352/JLS.2016.26.12.1392; settings: SK-OV3 ovarian; cited from earlier work
[3] = Apparent partition coefficient between n-octanol and PBS; assay type: physicochemical; settings: n-octanol/PBS pH 7.4, 10 mM TC vs absence of TC, 25 °C
Protocol: The effect of TC on the apparent partition coefficients (APC) of Jaspine B between aqueous and organic phases was investigated. n-Octanol and phosphate-buffered saline (PBS, pH 7.4) were used as the organic and aqueous phases, respectively, in the partition study. n-Octanol and PBS were saturated with respect to one another prior to use. An equal volume of n-octanol was added to PBS (5 mL each) containing Jaspine B (10 mM) and TC (0, 0.1, 1, 10, or 100 mM) in a screw-capped test tube, and the mixture was vortexed vigorously for 5 min followed by shaking for 2 h at 25 °C in a temperature-controlled water bath. After standing for 1 h at 25 °C in the water bath, the mixture was separated into two phases by centrifugation at 3000 rpm for 10 min. The concentration of Jaspine B in a 50-μL aliquot of aqueous and organic phase was measured. Briefly, 50 μL of sample was added to 250 μL of acetonitrile containing 0.5 ng/mL of berberine. After vortexing for 10 min and centrifugation at 13,200 rpm for 5 min, an aliquot (2 μL) of the supernatant was injected directly into the LC-MS/MS system. The APC was calculated from the concentration ratio of each compound between the octanol and PBS phases.

[4] = Cumulative urinary and fecal excretion in metabolic cage; assay type: in vivo; settings: rat, IV 10 mg/kg, 72 h; for dose excreted: feces and urine combined, read-out: recovery of unaltered Jaspine B from combined feces and urine
Protocol: In the experiment using metabolic cages, feces were collected at 12, 24, 48, and 72 h following the IV administration of Jaspine B (10 mg/kg). Aliquots of 50 μL of urine and 10% feces homogenates were stored at −80 °C until the analysis.
Aliquots (50 μL) of plasma, bile, feces homogenates, and urine samples were added to 250 μL of acetonitrile containing 0.5 ng/mL of berberine (an internal standard). After vortexing for 10 min and centrifugation at 13,200 rpm for 5 min, an aliquot (2 μL) of the supernatant was injected directly into the LC-MS/MS system. For the analysis of plasma concentration, the standard curve range was 25–5000 ng/mL and the concentrations of quality control (QC) samples were 75, 500, and 3000 ng/mL, as described previously. Concentrations of Jaspine B in urine, bile, and feces homogenates were 5–300 ng/mL, 20–5000 ng/mL, and 20–5000 ng/mL, respectively. The concentrations of QC samples were 15, 100, and 300 ng/mL for urine samples and 75, 500, and 3000 ng/mL for bile and feces homogenates.

[5] = Metabolic stability in rat liver microsomes; assay type: in vitro ADME; settings: for percentage remaining: 37 °C
Protocol: Jaspine B (1 μM) was reconstituted in 100 mM potassium phosphate buffer (pH 7.4) containing 0.25 mg of RLMs and was pre-incubated for 5 min at 37 °C. The reaction was initiated by adding an NADPH-generating system (1.3 mM β-NADP, 3.3 mM glucose-6-phosphate, 3.3 mM MgCl2, and 1.0 unit/mL glucose-6-phosphate dehydrogenase) and then incubated (final volume 100 μL) for 0, 15, 30, and 60 min at 37 °C in a shaking water bath. The reaction was stopped by placing the incubation tubes on ice and adding 200 μL of ice-cold acetonitrile containing 0.5 ng/mL of berberine. After vortexing for 10 min and centrifugation at 13,200 rpm for 5 min, 2 μL of the supernatant was injected directly into the LC-MS/MS system.

786-O = test system: 786-O; design: method as in doi:10.5352/JLS.2016.26.12.1392; settings: 786-O renal carcinoma; cited from earlier work
[6] = Sprague-Dawley (SD), brain, IV 10 mg/kg, read-out: T/P ratio, brain
[7] = Sprague-Dawley (SD), kidney, IV 10 mg/kg, read-out: T/P ratio, kidney
[8] = Sprague-Dawley (SD), liver, IV 10 mg/kg, read-out: T/P ratio, liver

Structure (SMILES): CCCCCCCCCCCCCC[C@@H]1OC[C@H](N)[C@@H]1O [Jaspine B]
- stability after 3 freeze thaw cycles ([1]; plasma QC samples 75, 500, 3000 ng/mL): 83.9–94.4%
- short-term stability ([1]; plasma QC samples, 6 h at room temperature): 94.3–100.1%
- IC50 (MDA-MB-231): > 100 µM
- Kp at 0.5 h [2, 6]: 6.2
- Kp at 12 h [2, 6]: 1.8
- Kp at 0.5 h ([2]; Sprague-Dawley (SD), heart, IV 10 mg/kg, read-out: T/P ratio, heart): 14.4
- Kp at 0.5 h [2, 7]: 11.1
- Kp at 12 h [2, 7]: 4.7
- Kp at 0.5 h [2, 8]: 2.3
- Kp at 12 h [2, 8]: 1.2
- Kp at 0.5 h ([2]; Sprague-Dawley (SD), spleen, IV 10 mg/kg, read-out: T/P ratio, spleen): 18.5
- Kp at 12 h ([2]; Sprague-Dawley, brain, kidney, heart, spleen, 10 mg/kg, single IV administration, read-out: T/P ratios in brain, kidney, heart and spleen): 2 to 4
- Kp at 12 h ([2]; Sprague-Dawley, heart, IV 10 mg/kg, read-out: T/P ratio, heart): 3.2
- Kp at 12 h ([2]; Sprague-Dawley, spleen, IV 10 mg/kg, read-out: T/P ratio, spleen): 3.9
- IC50 (SK-OV3): 4.78 µM
- increase of partition coefficient [3]: 10 fold
- dose excreted ([4]; SD (Sprague-Dawley)): 6.3%
- dose excreted ([4]; Sprague-Dawley (SD)): ~6.3%
- dose recovered from feces ([4]; metabolic cage): 4.7 ± 0.8%
- dose recovered from urine ([4]; metabolic cage): 1.6 ± 0.7%
- percentage remaining ([5]; 1 μM, rat liver microsomes, NADPH-generating system, 30 min): 59.8%
- percentage remaining ([5]; 1 μM, rat liver microsomes, NADPH-generating system, 60 min): 20.4%
- degraded ([5]; 1 h incubation with rat liver microsomes): 80%
- half-life at 1 μM ([5]; pH 7.4, 1 μM, rat liver microsomes, NADPH-generating system, read-out: degradation half-life (T1/2)): 24 min
- IC50 (786-O): 29.4 µM
